According to patent US6358921B1, “Antimicrobial peptide compositions and method” (priority 1996, dated 2002):
Like-named read-outs stand apart in the source and are kept apart here.

Tests used:
P. aeruginosa H187 = type: cell-based, Pseudomonas aeruginosa
How it was run: (§1)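 Broth microdilution in LB: overnight 37 °C cultures were diluted and added to serial peptide dilutions at a final 5×10^5 CFU/mL, then incubated overnight at 37 °C. MIC (μg/ml) is the lowest concentration inhibiting growth. Strains include E. faecalis ATCC 29212 and P. aeruginosa H188, the antibiotic-sensitive derivative of H187.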

P. aeruginosa H188 = type: cell-based, Pseudomonas aeruginosa
Source text: The following bacterial strains were utilized: Escherichia coli UB1005 (wt) and its antibiotic supersusceptible derivative DC2 (Clark, 1984); Excherichia coli SC9251 and its polymixin B rasistant mutant pmrA SC9252 (Peterson, et al., 1987) Pseudomonas aeruginosa H187 (wt) (Angus, et al., 1987) and its antibiotic-sensitive derivative H188 (Zimmerman, W, Antimicrob. Agents Chemother. 18: 94-100, 1980); methicillin sensitive Staphylococcus aureus K147 (Kreiswirth, et al., 1983); Staphylococcus aureus SAP0017, a methicillin resistant clinical isolate from Dr. A. Chow (University of British Columia); Bacillus subtilis, an environmental wt lab strain. Enterococcus faecalis are ATCC 29212 cells and Staphylococcus epidermidis was a clinical isolate from Dr. D. Speert (University of British Columbia). Antifungal activity was tested using a clinical lab isolate of Candida albicans. Salmonella typhinurium C57 and C610 (Fields, P.I., et al., Science 243: 1059-1062 (1989) Corynebacterium xerosis was an environmental isolate (University of British Columbia).
It is now apparent that agar-based assays severely underestimate antifungal activity as well as activity against gram negative microorganisms (Kondejewski, et al., 1996). Consequently, in the studies reported herein, a liquid-broth method was used to measure the antibiotic properties of the peptides. […] Briefly, cells were grown overnight at 37° C. in LB and diluted in the same medium. Serial dilutions of antibiotics were added to the microtitre plates in a volume of 100 μL followed by 10 μL of bacteria to give a final inoculum of 5×10^5 CFU/mL. Plates were incubated at 37° C. overnight and MICs determined as the lowest antibiotic concentration that inhibited growth. […]

E. coli UB1005 = type: cell-based, Escherichia coli; details: UB1005
How it was run: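 Liquid-broth rather than agar method. Organisms: clinical isolates (C. albicans, S. epidermidis), environmental C. xerosis, wild-type E. coli UB1005.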

E. coli DC2 = type: cell-based, Escherichia coli; details: DC2
How it was run: as §1

S. typhinurium C587 = type: cell-based, Salmonella typhinurium
How it was run: (§2)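 Antimicrobial activity is measured by a liquid-broth assay in LB at 37 °C overnight, starting from 5×10^5 CFU/mL. Values are minimal inhibitory concentrations, i.e. the lowest concentration that stops growth.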

S. typhinurium C610 = type: cell-based, Salmonella typhinurium
How it was run: as §2

S. aureus K147 = type: cell-based, Staphylococcus aureus
How it was run: (§3)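 Liquid-broth microdilution: overnight LB cultures at 37 °C, diluted to a final inoculum of 5×10^5 CFU/mL with serial peptide dilutions, incubated overnight at 37 °C. MIC (μg/ml) is the lowest concentration that inhibited growth. Therapeutic index is the concentration giving complete hemolysis at 4 h divided by the MIC.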

S. aureus SAP0017 = type: cell-based, Staphylococcus aureus
How it was run: as §3

S. epidermidis = type: cell-based, Staphylococcus epidermidis
How it was run: (§4)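 Liquid-broth microdilution: overnight LB cultures diluted and added to serial peptide dilutions at final 5×10^5 CFU/mL, incubated overnight at 37 °C. MIC is the lowest concentration inhibiting growth; C. albicans a clinical isolate, S. epidermidis clinical, C. xerosis environmental.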

B. subtilis = type: cell-based, Bacillus subtilis
How it was run: as §4

E. faecalis = type: cell-based, Enterococcus faecalis
How it was run: as §2

C. xeroses = type: cell-based, Corynebacterium xerosis
How it was run: as §4

C. Albicans = type: cell-based, Candida albicans
How it was run: as §4

[1] = Displacement of dansyl-polymyxin from LPS; type: binding, P. aeruginosa; details: read-out: LPS binding affinity: peptide concentration to displace 50% of dansyl-polymyxin B from LPS; Tables 1, 4, 7
How it was run: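 Peptides titrated into 3 μg/mL P. aeruginosa LPS with 2.5 μM dansyl-polymyxin (~90% site saturation) in 5 mM sodium HEPES, pH 7.0; fluorescence decrease recorded. I50 (50% probe displacement) taken from the x-intercept of a double-reciprocal plot of percent inhibition versus inhibitor concentration.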

human erythrocytes = test: Hemolytic activity; type: cell-based
Experimental: Serial dilutions of the peptides in saline were prepared in round bottom microtitre plates using 100 μL volumes. Red blood cells were diluted with saline to 1/25 packed volume of cells and 50 μL added to each well. Plates were incubated with rocking at 37° C., and the concentration required for complete lysis determined visually after 4 h.

Row | SMILES | Minimum Inhibitory Concentration (activity) (P. aeruginosa H187; H187) | Minimum Inhibitory Concentration (activity) (P. aeruginosa H188; H188) | Minimum Inhibitory Concentration (activity) (E. coli UB1005) | Minimum Inhibitory Concentration (activity) (E. coli DC2) | Minimum Inhibitory Concentration (activity) (S. typhinurium C587) | Minimum Inhibitory Concentration (activity) (S. typhinurium C610) | Minimum Inhibitory Concentration (activity) (S. aureus K147) | Minimum Inhibitory Concentration (activity) (S. aureus SAP0017) | Minimum Inhibitory Concentration (activity) (S. epidermidis) | Minimum Inhibitory Concentration (activity) (B. subtilis) | Minimum Inhibitory Concentration (activity) (E. faecalis) | Minimum Inhibitory Concentration (activity) (C. xeroses) | Minimum Inhibitory Concentration (activity) (C. Albicans) | IC50 [1] | Hemolytic activity: peptide concentration for 100% lysis of human erythrocytes (human erythrocytes) | further results
1 | CC(C)C[C@@H]1NC(=O)[C@H](CCCCN)NC(=O)[C@H](C(C)C)NC(=O)[C@@H]2CCCN2C(=O)[C@@H](Cc2ccc(O)cc2)NC(=O)[C@H](CC(C)C)NC(=O)[C@H](CCCCN)NC(=O)[C@H](C(C)C)NC(=O)[C@H](CCCCN)NC(=O)[C@H](CC(C)C)NC(=O)[C@H]2CCCN2C(=O)[C@@H](Cc2ccc(O)cc2)NC(=O)[C@H](C(C)C)NC(=O)[C@H](CCCCN)NC1=O [GS14P7] | 200 µg/mL | 100 µg/mL | 200 µg/mL | 6.2 µg/mL | >200 µg/mL | 200 µg/mL | >200 µg/mL | >200 µg/mL | 6.2 µg/mL | >200 µg/mL | 6.2 µg/mL | 1 µg/mL | 25 µg/mL | 18 µM | – | –
2 | CC(C)C[C@@H]1NC(=O)[C@H](CCCCN)NC(=O)[C@H](C(C)C)NC(=O)[C@H]2CCCN2C(=O)[C@@H](Cc2ccc(O)cc2)NC(=O)[C@H](CC(C)C)NC(=O)[C@H](CCCCN)NC(=O)[C@H](C(C)C)NC(=O)[C@H](CCCCN)NC(=O)[C@H](CC(C)C)NC(=O)[C@@H]2CCCN2C(=O)[C@@H](Cc2ccc(O)cc2)NC(=O)[C@H](C(C)C)NC(=O)[C@H](CCCCN)NC1=O [GS14P14] | >200 µg/mL | 100 µg/mL | 100 µg/mL | 4 µg/mL | >200 µg/mL | >200 µg/mL | >200 µg/mL | >200 µg/mL | 6.2 µg/mL | >200 µg/mL | 6.2 µg/mL | 1 µg/mL | 25 µg/mL | 20 µM | – | –
3 | CC(C)C[C@@H]1NC(=O)[C@H](CCCCN)NC(=O)[C@@H](C(C)C)NC(=O)[C@@H]2CCCN2C(=O)[C@@H](Cc2ccc(O)cc2)NC(=O)[C@H](CC(C)C)NC(=O)[C@H](CCCCN)NC(=O)[C@H](C(C)C)NC(=O)[C@H](CCCCN)NC(=O)[C@H](CC(C)C)NC(=O)[C@@H]2CCCN2C(=O)[C@@H](Cc2ccc(O)cc2)NC(=O)[C@H](C(C)C)NC(=O)[C@H](CCCCN)NC1=O [GS14V1] | 60 µg/mL | 3.1 µg/mL | 6.2 µg/mL | 3.1 µg/mL | 50 µg/mL | 6.2 µg/mL | 100 µg/mL | 50 µg/mL | 3.1 µg/mL | 50 µg/mL | 1.5 µg/mL | 1.5 µg/mL | 5 µg/mL | 41 µM | – | –
4 | CC(C)C[C@@H]1NC(=O)[C@H](CCCCN)NC(=O)[C@H](C(C)C)NC(=O)[C@@H]2CCCN2C(=O)[C@H](Cc2ccc(O)cc2)NC(=O)[C@H](CC(C)C)NC(=O)[C@H](CCCCN)NC(=O)[C@H](C(C)C)NC(=O)[C@H](CCCCN)NC(=O)[C@H](CC(C)C)NC(=O)[C@@H]2CCCN2C(=O)[C@@H](Cc2ccc(O)cc2)NC(=O)[C@H](C(C)C)NC(=O)[C@H](CCCCN)NC1=O [GS14Y13] | >200 µg/mL | 100 µg/mL | 100 µg/mL | 3.1 µg/mL | >200 µg/mL | >200 µg/mL | >200 µg/mL | >200 µg/mL | 9 µg/mL | >200 µg/mL | 3.1 µg/mL | 1 µg/mL | 25 µg/mL | 24 µM | – | –
5 | CC(C)C[C@@H]1NC(=O)[C@H](CCCCN)NC(=O)[C@H](C(C)C)NC(=O)[C@H](CCCCN)NC(=O)[C@@H]2CCCN2C(=O)[C@@H](Cc2ccc(O)cc2)NC(=O)[C@H](CCCCN)NC(=O)[C@H](CC(C)C)NC(=O)[C@H](CCCCN)NC(=O)[C@@H](C(C)C)NC(=O)[C@H](CCCCN)NC(=O)[C@@H]2CCCN2C(=O)[C@@H](Cc2ccc(O)cc2)NC(=O)[C@H](CCCCN)NC1=O [GS14invV2] | 9 µg/mL | 9 µg/mL | 25 µg/mL | 50 µg/mL | 200 µg/mL | 37 µg/mL | >200 µg/mL | – | 100 µg/mL | >200 µg/mL | >200 µg/mL | 6.2 µg/mL | 200 µg/mL | 71 µM | 800 µg/mL | –
6 | CC(C)C[C@@H]1NC(=O)[C@H](CCCCN)NC(=O)[C@H](C(C)C)NC(=O)[C@@H]2CCCN2C(=O)[C@@H](Cc2ccc(O)cc2)NC(=O)[C@H](CCCCN)NC(=O)[C@H](CC(C)C)NC(=O)[C@H](C(C)C)NC(=O)[C@H](CCCCN)NC(=O)[C@H](CC(C)C)NC(=O)[C@@H]2CCCN2C(=O)[C@@H](Cc2ccc(O)cc2)NC(=O)[C@H](CCCCN)NC(=O)[C@H](C(C)C)NC1=O [GS14na] | – | – | 37 µg/mL | 62 µg/mL | 100 µg/mL | 12.5 µg/mL | >200 µg/mL | 200 µg/mL | – | – | – | – | – | – | >800 µg/mL | Minimum Inhibitory Concentration (activity) (P. aeruginosa H187; P. aeruginosa H187): 75 µg/mL; Minimum Inhibitory Concentration (activity) (P. aeruginosa H188; P. aeruginosa H188): 18 µg/mL; Minimum Inhibitory Concentration (activity) (S. epidermidis; S. epidermidis): 50 µg/mL; Minimum Inhibitory Concentration (activity) (B. subtilis; B. subtilis): >200 µg/mL; Minimum Inhibitory Concentration (activity) (E. faecalis; E. faecalis): 200 µg/mL; Minimum Inhibitory Concentration (activity) (C. xeroses; C. xeroses): 1.5 µg/mL; Minimum Inhibitory Concentration (activity) (C. Albicans; C. Albicans): 100 µg/mL
